Laboratory results: PMC8434204, “Discrimination of Methionine Sulfoxide and Sulfone by Human Neutrophil Elastase” (Molecules, 2021)
Like-named read-outs stand apart in the source and are kept apart here. Square brackets hold non-standard residues; d marks the D form. Peptide text beside a SMILES is read from it. * marks the point of attachment. Met(O2) = CS(=O)(=O)CC[C@H](N)C(=O)O; Met(O) = CS(=O)CC[C@H](N)C(=O)O; pNA = O=[N+]([O-])c1ccc(N*)cc1; MeOSuc = COC(=O)CCC(=O)*

How the values were obtained:
[1] = target: T1, Human neutrophil elastase (HNE) (Homo sapiens, UniProt P08246); experiment: Inhibition of HNE proteolysis by peptide aldehyde inhibitors; type: biochemical; conditions: for Ki: 10 nM active HNE, 100 nM Ac-RM(O2)AA-pNA substrate (Figure 3), 20 min complex formation at RT, 405 nm, Morrison equation for tight-binding inhibitors, three replicate experiments of triplicate measurements; for Relative Potency (fold inhibition enhancement relative to Ac-RMAV-H): ratio of Ki values relative to non-oxidised Ac-RMAV-H
T1 construct: HNE purified from purulent human sputum (Elastin Products Company, Owensville, MO, USA); purchased Elastin Products Company, Owensville, MO, USA; host or cells: purulent human sputum (natural source)
T1 sequence (P08246 30-247 limits assumed): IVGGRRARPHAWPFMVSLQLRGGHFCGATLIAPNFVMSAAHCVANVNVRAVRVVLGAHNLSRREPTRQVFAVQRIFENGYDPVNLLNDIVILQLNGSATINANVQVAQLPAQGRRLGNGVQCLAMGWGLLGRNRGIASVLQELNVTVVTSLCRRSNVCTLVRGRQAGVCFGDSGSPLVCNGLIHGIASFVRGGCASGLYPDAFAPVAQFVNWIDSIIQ
Description: Figure 3 Dose-response plot of Ac-RMAV-H peptide aldehyde inhibitor variants containing differing oxidation states of the P3 methionine residue. All assays contained 10 nM active HNE and 100 nM Ac-RM(O2)AA-pNA substrate. Data are reported as percent activity remaining compared to uninhibited controls, and data points represent the mean observed from three replicate experiments of triplicate measurements. Error bars show SEM. Where not visible, error bars are smaller than the pictured data point.
(§1) For substrate library kinetic assay screen, reactions were initiated by addition of HNE purified from purulent human sputum (Elastin Products Company, Owensville, MO, USA) to triplicate microplate wells containing each substrate, and the rate of reaction determined spectrophotometrically at 405 nm. Final concentrations were 300 µM substrates and 1 µg/mL HNE in 250 µL assay buffer (100 mM Tris pH 8, 50 mM NaCl, 10% DMF, 0.05% Triton X-100). For in-depth assays of candidate substrates and inhibitors, the active site concentration of HNE was first determined by titration with A1AT. Briefly, 250 nM A1AT was serially diluted in a 96-well microplate to provide a final assay volume of 250 µL. A total of 2.5 µL of HNE stock solution (100 µg/mL) was added to each well and complex formation was allowed to proceed over a period of 20 min at RT. Assays were initiated by addition of Ac-RM(O2)PA-pNA substrate, monitoring the evolution of free para-nitroanilide at 405 nm for 90 s again at RT. Kinetic assays of synthesized pNA substrates were carried out similarly omitting the A1AT and serially diluting the substrates, KM and Vmax values were determined by GraphPad Prism 5.01 (La Jolla, CA, USA) Michaelis–Menten non-linear regression. Assays with peptide aldehyde inhibitors were carried out as with the active site titration. Inhibition constants were calculated in GraphPad Prism by non-linear regression using the Morrison equation for tight-binding inhibitors.

[2] = target: T1, Human neutrophil elastase (HNE); conditions: literature value; read-out: KM, previously published value; cited from earlier work
Description: The standard substrate MeOSuc-AAPV-pNA was also synthesised to provide a benchmark against other studies. […] Acetylated forms of the P4 arginine substrates were synthesised to assess the effect of a charged N-termin ...

[3] = target: T1, Human neutrophil elastase (HNE); experiment: Kinetic assays of synthesized pNA substrates (Michaelis-Menten); type: biochemical
Description: Figure 2 Substrate concentration versus velocity plot of candidate pNA substrates containing a P1 valine residue (A), or a P1 alanine residue (B), assayed against 3 nM active HNE. […] Data points represent the average rate observed from three replicate experiments of triplicate measurements. […] Error bars show SEM. Where not visible, error bars are smaller than the pictured data point.
as §1

Ki [1] [µM]	Relative Potency (fold inhibition enhancement relative to Ac-RMAV-H) [1]	Molecule	Km [2] [µM]	kcat ([3]; 3 nM active HNE (purified from purulent human sputum), 100 mM Tris pH 8, 50 mM NaCl, 10% DMF, 0.05% Triton X-100, RT, 405 nm, Michaelis-Menten non-linear regression, three replicate experiments of triplicate measurements) [s⁻¹]	Km ([3]; 3 nM active HNE, 100 mM Tris pH 8, 50 mM NaCl, 10% DMF, 0.05% Triton X-100, RT, 405 nm, Michaelis-Menten non-linear regression, ± SEM) [µM]	kcat/KM ([3]; catalytic efficiency calculated from kcat and KM, 3 nM active HNE) [M⁻¹ s⁻¹]
7.27	1	CSCC[C@H](NC(=O)[C@H](CCCNC(=N)N)NC(C)=O)C(=O)N[C@@H](C)C(=O)N[C@H](C=O)C(C)C [Ac-RMAV-H] (Ac-RMAV-aldehyde)				
		MeOSuc-AAPV-pNA (SMILES COC(=O)CCC(=O)N[C@@H](C)C(=O)N[C@@H](C)C(=O)N1CCC[C@H]1C(=O)N[C@H](C(=O)Nc1ccc([N+](=O)[O-])cc1)C(C)C) [standard HNE substrate synthesised as benchmark against other studies]	140	2.90	153 ± 17.6	18900
0.147	49.4	CC(=O)N[C@@H](CCCNC(=N)N)C(=O)N[C@@H](CCS(C)(=O)=O)C(=O)N[C@@H](C)C(=O)N[C@H](C=O)C(C)C [Ac-RM(O2)AV-H] (Ac-R[Met(O2)]AV-aldehyde)				
5.55	1.3	CC(=O)N[C@@H](CCCNC(=N)N)C(=O)N[C@@H](CC[S+](C)[O-])C(=O)N[C@@H](C)C(=O)N[C@H](C=O)C(C)C (stereo partly shown) [Ac-RM(O)AV-H] (Ac-R[Met(O)]AV-aldehyde)				
